What all share (type): functional
One assay relates to Bacillus subtilis. Description: Antibacterial activity against Bacillus subtilis CGMCC 1.88 after 24 hrs by micro-broth dilution method. The settings on record: CGMCC 1.88, 24 h. For orientation: In broth dilution the organism is exposed to a series of concentrations in liquid medium.
Assay [1] deals with Staphylococcus aureus. Description: Antibacterial activity against Staphylococcus aureus CGMCC 1.89 after 24 hrs by micro-broth dilution method. To be noted: CGMCC 1.89, 24 h.
Another assay concerns Escherichia coli. Briefly: Antibacterial activity against Escherichia coli CGMCC 1.1574 after 24 hrs by micro-broth dilution method. The settings on record: CGMCC 1.1574, 24 h.
A further assay deals with Bacillus cereus. Briefly: Antibacterial activity against Bacillus cereus CGMCC 1.1846 after 24 hrs by micro-broth dilution method. The settings on record: CGMCC 1.1846, 24 h.
In a further assay the test system is Pseudomonas aeruginosa. Description: Antibacterial activity against Pseudomonas aeruginosa CGMCC 1.2031 after 24 hrs by micro-broth dilution method. To be noted: CGMCC 1.2031, 24 h.
The test system of assay [2] is Staphylococcus aureus. Description: Antibacterial activity against methicillin-resistant Staphylococcus aureus after 24 hrs by micro-broth dilution method.

Values after ≈ are worked out from the molar mass of the structure shown. Some results are limits rather than exact numbers.

The text below walks through data of ChEMBL document CHEMBL1949599, “Three novel cyclic hexapeptides from Streptomyces alboflavus 313 and their antibacterial activity” (2012).

For orientation: MIC means the lowest concentration found to suppress growth. A high value points to a less susceptible organism.

Regarding `CC(C)[C@H]1NC(=O)[C@@H]2C[C@@]3(O)c4ccc(Cl)cc4N[C@H]3N2C(=O)[C@H]2CCCNN2C(=O)[C@@H](C)NC(=O)[C@H]2CCCNN2C(=O)[C@@H]2CCCNN2C1=O`, the MIC against Bacillus subtilis, against Staphylococcus aureus [1], in the assay with Escherichia coli, against Bacillus cereus, in the assay on Pseudomonas aeruginosa and with Staphylococcus aureus [2] was more than 100 µg/mL throughout.
With `CC1(C)S[C@@H]2[C@H](NC(=O)[C@H](N)c3ccccc3)C(=O)N2[C@H]1C(=O)[O-].[Na+]` [AMPICILLIN SODIUM], the MIC is 1.56 µg/mL with Bacillus subtilis; 6.25 µg/mL in the assay with Staphylococcus aureus [1]; 3.13 µg/mL against Escherichia coli; 6.25 µg/mL in the assay on Bacillus cereus; more than 100 µg/mL with Pseudomonas aeruginosa; more than 100 µg/mL in the assay on Staphylococcus aureus [2].
Take `COC1=CC2C(=O)N(C)[C@@H](C)C(=O)N3NCCC[C@@H]3C(=O)N3[C@@H](C[C@@]4(O)c5ccc(Cl)cc5N[C@@H]34)C(=O)N[C@H](C(C)C)C(=O)N3NCCC[C@@H]3C(=O)N2N=C1` (stereo not given in full): the MIC is 3.13 µg/mL (≈ 4 µM) against Bacillus subtilis; 1.56 µg/mL (≈ 1.99 µM) against Staphylococcus aureus [1]; more than 100 µg/mL against Escherichia coli; 3.13 µg/mL (≈ 4 µM) with Bacillus cereus; more than 100 µg/mL against Pseudomonas aeruginosa; 1.56 µg/mL (≈ 1.99 µM) with Staphylococcus aureus [2].
With `CC(C)[C@@H]1NC(=O)[C@@H]2C[C@@]3(O)c4ccc(Cl)cc4N[C@H]3N2C(=O)[C@H]2CCCNN2C(=O)[C@@H](C)N(C)C(=O)[C@H]2CCCNN2C(=O)[C@@H]2CCCNN2C1=O`, the MIC in the assay with Bacillus subtilis is 12.5 µg/mL (≈ 16.5 µM); with Staphylococcus aureus [1] it was 6.25 µg/mL (≈ 8.25 µM); with Escherichia coli, more than 100 µg/mL; against Bacillus cereus, 12.5 µg/mL (≈ 16.5 µM); in the assay with Pseudomonas aeruginosa it was more than 100 µg/mL; against Staphylococcus aureus [2], 6.25 µg/mL (≈ 8.25 µM).
Take `COC1C=NN2C(=O)[C@H]3CCCNN3C(=O)[C@@H](C(C)C)NC(=O)[C@@H]3C[C@@]4(O)c5ccc(Cl)cc5N[C@H]4N3C(=O)[C@H]3CCCNN3C(=O)[C@H](C)N(C)C(=O)C2C1` (stereo not given in full): the MIC in the assay on Bacillus subtilis is 25 µg/mL (≈ 31.8 µM); with Staphylococcus aureus [1], 25 µg/mL (≈ 31.8 µM); in the assay on Escherichia coli, more than 100 µg/mL; against Bacillus cereus, 25 µg/mL (≈ 31.8 µM); in the assay on Pseudomonas aeruginosa, more than 100 µg/mL; in the assay with Staphylococcus aureus [2], 25 µg/mL (≈ 31.8 µM).
